Laboratory results reported in patent US7087420B1, “Microbial β-glucuronidase genes, gene products and uses thereof” (Cambia, priority 1997, dated 2006).

What was measured:
Millin rice plants = settings: MUG 1 mM in water
Description: Seeds of T0 plants, which are the primary transformed plants, from pTANG86.1/2/3/4/5/6 (see Table 7 below) transformed plants, seeds of pCAM1301 (E. coli GUS with N358-Q change to remove N-glycosylation signal sequence) transformed plants, or untransformed Millin rice seeds are germinated in water containing 1 mM MUG or 50 μg/mL X-GlcA with or without hygromycin (for nontransformed plants). Resulting plants are observed for any reduced growth due to the presence of MUG, X-GlcA.

rice seeds = assay: Growth of rice plants germinated in water containing glucuronide substrate; format: in vivo; settings: 50 μg/mL X-GlcA in germination water
[1] = tested on: Staphylococcus β-glucuronidase (GUS^Stp, Staph GUS), wild type, SEQ ID NO: 18 (DNA SEQ ID NO: 1); assay: Inhibition of Staphylococcus GUS by end product glucuronic acid; format: biochemical
Description: GUS^Stp enzyme activity is also resistant to inhibition by detergents. Enzyme activity assays are measured in the presence of varying amounts of SDS, Triton® X-100, or sarcosyl. […] In SDS, the enzyme still had substantial activity (60–75% activity). In addition, GUS^Stp is not inhibited by the end product of the reaction. Activity is determined normally or in the presence of 1 or 10 mM glucuronic acid. No inhibition is seen at either 1 or 10 mM glucuronic acid (FIG. 11). The enzyme is also assayed in the presence of organic solvents, dimethylformamide (DMF) and dimethylsulfoxide (DMSO), and high concentrations of NaCl (FIG. 12).

[2] = target: T1, E. coli β-glucuronidase (E. coli GUS, GUS^Eco), wild type, SEQ ID NO: 23 (Escherichia coli, UniProt P05804); settings: background statement, no concentration; cited from earlier work
T1 construct: pNPG substrate; functional homotetramer

[3] = chromophore released from pNPG; cited from earlier work
[4] = tested on: Staphylococcus β-glucuronidase (GUS^Stp, Staph GUS), wild type, SEQ ID NO: 18 (DNA SEQ ID NO: 1); assay: Kinetics of pNPG hydrolysis by Staphylococcus GUS (spectrophotometric p-nitrophenol release); format: biochemical
Description: The thermal stability of GUS^Stp and E. coli GUS enzymes are determined at 65° C., using a substrate that can be measured by spectrophotometry, for example. One such substrate is p-nitrophenyl β-D-glucuronide (pNPG), which when cleaved by GUS releases the chromophore p-nitrophenol. At a pH greater than its pKa (approximately 7.15), the ionized chromophore absorbs light at 400–420 nm, therefore appears in the yellow range of visible light. Briefly, reactions are performed in 50 mM Na3PO4 pH 7.0, 10 mM 2-ME, 1 mM EDTA, 1 mM pNPG, and 0.1% Triton® X-100 at 37° C. The reactions are terminated by the addition of 0.4 ml of 2-amino-2-methylpropanediol, and absorbance measured at 415 nm against a substrate blank. Under these conditions, the molar extinction coefficient of p-nitrophenol is assumed to be 14,000: One unit is defined as the amount of enzyme that produces 1 nmole of product/min at 37° C.
Turnover number is calculated as nmoles of pNPG converted to p-nitrophenol per min per μg of purified protein.

yeast colonies = assay: Yeast colonies on X-GlcA expression plates containing tunicamycin; format: cell-based; settings: tunicamycin 5, 10, and 20 μg/ml
Description: (§1) To determine whether the N-glycosylation site has a deleterious effect, on secretion, yeast colonies are streaked on expression plates containing X-GlcA and from 0.1 to 20 μg/ml of tunicamycin (to inhibit all N-glycosylation).

yeast strain InvSc1 = assay: Growth of transformed yeast colonies on expression plates with tunicamycin; settings: tunicamycin 5, 10, and 20 μg/ml
Description: Yeast strain InvSc1 (mat α his3-Δ1 leu2 trp1-289 ura3-52) from Invitrogen (Carlsbad, Calif.) is transformed with the E. coli GUS and Staphylococcus GUS plasmids indicated in the table below. Transformants are plated on both selection media (minimal media supplemented with His, Leu, Trp, and 2% glucose as a carbon source to suppress the expression of the gene driven by the gal1 promoter) and expression media (media supplemented with His, Leu, Trp, 1% raffinose, 1% galactose as carbon source and with 50 μg/ml X-GlcA).
as §1

T1 sequence (P05804 whole entry): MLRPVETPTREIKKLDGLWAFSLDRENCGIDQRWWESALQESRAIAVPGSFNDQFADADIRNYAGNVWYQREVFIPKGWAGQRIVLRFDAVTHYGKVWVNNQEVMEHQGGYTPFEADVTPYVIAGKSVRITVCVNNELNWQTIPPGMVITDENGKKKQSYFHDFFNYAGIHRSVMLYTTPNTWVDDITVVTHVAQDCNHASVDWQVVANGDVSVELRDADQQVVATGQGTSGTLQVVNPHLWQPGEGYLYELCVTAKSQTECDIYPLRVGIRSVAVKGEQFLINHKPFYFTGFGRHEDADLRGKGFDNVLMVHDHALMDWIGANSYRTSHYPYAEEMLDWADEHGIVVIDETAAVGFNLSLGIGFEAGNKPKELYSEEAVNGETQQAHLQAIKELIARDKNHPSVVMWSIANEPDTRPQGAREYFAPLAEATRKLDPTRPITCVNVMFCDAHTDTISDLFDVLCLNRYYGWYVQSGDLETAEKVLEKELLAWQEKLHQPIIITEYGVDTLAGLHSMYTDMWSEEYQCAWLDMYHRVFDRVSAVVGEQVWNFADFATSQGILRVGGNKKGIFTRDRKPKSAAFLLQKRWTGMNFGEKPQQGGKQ

## Cc1cc(=O)oc2cc(O[C@@H]3O[C@H](C(=O)O)[C@@H](O)[C@H](O)[C@H]3O)ccc12 [MUG, 4-methylumbelliferyl β-D-glucuronide]
Millin rice plants
  Effect on roots of rice plants (reduced growth): somewhat stunted

## O=C(O)[C@H]1O[C@@H](Oc2c[nH]c3ccc(Br)c(Cl)c23)[C@H](O)[C@@H](O)[C@@H]1O [X-GlcA, 5-bromo-4-chloro-3-indolyl β-D-glucuronide]
Rice seeds
  toxic effects / reduced growth of plants: No toxic effects

## O=C(O)[C@H]1OC(O)[C@H](O)[C@@H](O)[C@@H]1O (stereo partly drawn) [glucuronic acid]
[1]; 1 mM glucuronic acid (FIG. 11)
  Inhibition by glucuronic acid: No inhibition
[1]; 10 mM glucuronic acid (FIG. 11)
  Inhibition by glucuronic acid: No inhibition
[1]; unlike E. coli GUS, FIG. 11
  Inhibition by glucuronic acid (summary statement): not substantially inhibited
[2]
  Inhibition by end product (glucuronic acid): inhibited

## O=[N+]([O-])c1ccc(O)cc1 [p-nitrophenol]
[3]
  pKa: approximately 7.15

## O=C(O)[C@H]1O[C@@H](Oc2ccc([N+](=O)[O-])cc2)[C@H](O)[C@@H](O)[C@@H]1O [pNPG, p-nitrophenyl β-D-glucuronide]
[4]; GUS^Stp vs E. coli GUS, 37° C.
  Vmax relative to E. coli GUS: about the same
[4]; GUS^Stp vs E. coli GUS, 37° C. (FIG. 8)
  Turnover number relative to E. coli GUS: approximately the same as E. coli GUS
[4]; Staph GUS, substrate pNPG, 37° C.
  Vmax: 80 nmol/min/µg

## tunicamycin [listing 1 of 2 here]
Yeast colonies
  growth of yeast colonies: do not grow

## tunicamycin [listing 2 of 2 here]
Yeast strain InvSc1
  Yeast colony growth (toxicity): do not grow
